From article PMC7366380, “Discovery of a Potent and Selective Covalent Inhibitor and Activity-Based Probe for the Deubiquitylating Enzyme UCHL1, with Antifibrotic Activity” (Journal of the American Chemical Society, 2020)
Values joined by “and” are separate entries in the source; they are usually repeats but may differ in a detail not shown here. Equal values may be shown once.

Assays:
Test in all cases: In-cell proteome-wide competitive ABPP, HEK293: other DUBs and proteins
[1] = biological target: T1, DUBs and other proteins in HEK293 cells (Homo sapiens, UniProt Q96K76); details: replicates A-C; for Log2 reporter intensity values: USP47: competition with ABP 2, DMSO substract (FC); for Log2 reporter intensity values: USP47, DMSO subtracted
T1 sequence (Q96K76 1-1375): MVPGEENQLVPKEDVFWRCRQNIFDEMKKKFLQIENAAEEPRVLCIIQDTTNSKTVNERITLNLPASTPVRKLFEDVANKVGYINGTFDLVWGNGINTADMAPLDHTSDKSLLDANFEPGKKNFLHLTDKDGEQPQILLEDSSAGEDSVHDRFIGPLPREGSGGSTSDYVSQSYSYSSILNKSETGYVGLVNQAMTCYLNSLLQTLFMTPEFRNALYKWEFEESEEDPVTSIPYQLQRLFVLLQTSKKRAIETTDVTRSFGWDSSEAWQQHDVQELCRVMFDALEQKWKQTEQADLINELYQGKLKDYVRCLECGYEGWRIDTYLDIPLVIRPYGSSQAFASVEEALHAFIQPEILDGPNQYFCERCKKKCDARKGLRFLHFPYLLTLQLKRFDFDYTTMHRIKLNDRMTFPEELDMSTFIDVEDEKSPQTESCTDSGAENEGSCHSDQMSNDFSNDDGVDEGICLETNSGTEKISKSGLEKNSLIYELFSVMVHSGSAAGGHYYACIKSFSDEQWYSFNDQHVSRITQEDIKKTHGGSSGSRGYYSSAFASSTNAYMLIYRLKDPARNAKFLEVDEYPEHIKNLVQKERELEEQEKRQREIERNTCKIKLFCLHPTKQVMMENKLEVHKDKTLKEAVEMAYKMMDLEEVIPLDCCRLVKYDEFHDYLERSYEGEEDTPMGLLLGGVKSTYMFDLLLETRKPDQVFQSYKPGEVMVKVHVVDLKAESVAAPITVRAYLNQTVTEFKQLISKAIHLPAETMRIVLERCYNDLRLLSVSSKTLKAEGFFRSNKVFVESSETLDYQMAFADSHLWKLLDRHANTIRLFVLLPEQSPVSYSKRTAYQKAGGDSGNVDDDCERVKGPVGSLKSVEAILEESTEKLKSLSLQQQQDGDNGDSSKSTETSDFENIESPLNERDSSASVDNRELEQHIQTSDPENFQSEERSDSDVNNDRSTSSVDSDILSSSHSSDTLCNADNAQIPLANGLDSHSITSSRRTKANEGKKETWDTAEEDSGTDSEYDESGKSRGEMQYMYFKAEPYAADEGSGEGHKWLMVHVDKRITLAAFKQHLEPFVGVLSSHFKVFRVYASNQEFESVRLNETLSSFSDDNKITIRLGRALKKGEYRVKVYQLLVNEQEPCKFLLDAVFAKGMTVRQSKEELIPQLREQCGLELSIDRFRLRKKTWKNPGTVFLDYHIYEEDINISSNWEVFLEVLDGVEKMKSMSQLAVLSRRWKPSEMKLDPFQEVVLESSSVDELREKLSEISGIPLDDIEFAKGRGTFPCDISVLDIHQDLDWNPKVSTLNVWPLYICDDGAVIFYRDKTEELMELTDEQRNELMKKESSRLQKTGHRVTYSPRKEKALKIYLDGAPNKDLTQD

[2] = biological target: DUBs and other proteins in HEK293 cells (Homo sapiens, UniProt Q93009); details: replicates A-C; for Log2 reporter intensity values: USP7: competition with ABP 2, DMSO substract (FC); for Log2 reporter intensity values: USP7, DMSO subtracted
[3] = biological target: DUBs and other proteins in HEK293 cells (Homo sapiens, UniProt O00487); details: replicates A-C; for Log2 reporter intensity values: PSMD14: competition with ABP 2, DMSO substract (FC); for Log2 reporter intensity values: PSMD14, DMSO subtracted
[4] = biological target: T2, DUBs and other proteins in HEK293 cells (Homo sapiens, UniProt Q9Y5K5); details: replicates A-C; for Log2 reporter intensity values: UCHL5: competition with ABP 2, DMSO substract (FC); for Log2 reporter intensity values: UCHL5, DMSO subtracted
T2 sequence (Q9Y5K5 1-329): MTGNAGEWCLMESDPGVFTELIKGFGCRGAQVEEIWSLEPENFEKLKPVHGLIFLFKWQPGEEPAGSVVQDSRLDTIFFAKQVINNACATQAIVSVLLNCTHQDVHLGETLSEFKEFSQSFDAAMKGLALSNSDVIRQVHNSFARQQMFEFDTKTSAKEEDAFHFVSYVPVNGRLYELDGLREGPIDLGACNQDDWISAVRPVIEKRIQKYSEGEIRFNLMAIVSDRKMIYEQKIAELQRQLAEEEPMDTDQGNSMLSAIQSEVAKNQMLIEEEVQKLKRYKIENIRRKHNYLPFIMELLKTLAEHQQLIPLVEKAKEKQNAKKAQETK

[5] = biological target: DUBs and other proteins in HEK293 cells (Homo sapiens, UniProt Q93008); details: replicates A-C; for Log2 reporter intensity values: USP9X;USP9Y: competition with ABP 2, DMSO substract (FC); for Log2 reporter intensity values: USP9X;USP9Y, DMSO subtracted
Sequence of DUBs and other proteins in HEK293 cells (Homo sapiens, UniProt Q93008) (Q93008 whole entry): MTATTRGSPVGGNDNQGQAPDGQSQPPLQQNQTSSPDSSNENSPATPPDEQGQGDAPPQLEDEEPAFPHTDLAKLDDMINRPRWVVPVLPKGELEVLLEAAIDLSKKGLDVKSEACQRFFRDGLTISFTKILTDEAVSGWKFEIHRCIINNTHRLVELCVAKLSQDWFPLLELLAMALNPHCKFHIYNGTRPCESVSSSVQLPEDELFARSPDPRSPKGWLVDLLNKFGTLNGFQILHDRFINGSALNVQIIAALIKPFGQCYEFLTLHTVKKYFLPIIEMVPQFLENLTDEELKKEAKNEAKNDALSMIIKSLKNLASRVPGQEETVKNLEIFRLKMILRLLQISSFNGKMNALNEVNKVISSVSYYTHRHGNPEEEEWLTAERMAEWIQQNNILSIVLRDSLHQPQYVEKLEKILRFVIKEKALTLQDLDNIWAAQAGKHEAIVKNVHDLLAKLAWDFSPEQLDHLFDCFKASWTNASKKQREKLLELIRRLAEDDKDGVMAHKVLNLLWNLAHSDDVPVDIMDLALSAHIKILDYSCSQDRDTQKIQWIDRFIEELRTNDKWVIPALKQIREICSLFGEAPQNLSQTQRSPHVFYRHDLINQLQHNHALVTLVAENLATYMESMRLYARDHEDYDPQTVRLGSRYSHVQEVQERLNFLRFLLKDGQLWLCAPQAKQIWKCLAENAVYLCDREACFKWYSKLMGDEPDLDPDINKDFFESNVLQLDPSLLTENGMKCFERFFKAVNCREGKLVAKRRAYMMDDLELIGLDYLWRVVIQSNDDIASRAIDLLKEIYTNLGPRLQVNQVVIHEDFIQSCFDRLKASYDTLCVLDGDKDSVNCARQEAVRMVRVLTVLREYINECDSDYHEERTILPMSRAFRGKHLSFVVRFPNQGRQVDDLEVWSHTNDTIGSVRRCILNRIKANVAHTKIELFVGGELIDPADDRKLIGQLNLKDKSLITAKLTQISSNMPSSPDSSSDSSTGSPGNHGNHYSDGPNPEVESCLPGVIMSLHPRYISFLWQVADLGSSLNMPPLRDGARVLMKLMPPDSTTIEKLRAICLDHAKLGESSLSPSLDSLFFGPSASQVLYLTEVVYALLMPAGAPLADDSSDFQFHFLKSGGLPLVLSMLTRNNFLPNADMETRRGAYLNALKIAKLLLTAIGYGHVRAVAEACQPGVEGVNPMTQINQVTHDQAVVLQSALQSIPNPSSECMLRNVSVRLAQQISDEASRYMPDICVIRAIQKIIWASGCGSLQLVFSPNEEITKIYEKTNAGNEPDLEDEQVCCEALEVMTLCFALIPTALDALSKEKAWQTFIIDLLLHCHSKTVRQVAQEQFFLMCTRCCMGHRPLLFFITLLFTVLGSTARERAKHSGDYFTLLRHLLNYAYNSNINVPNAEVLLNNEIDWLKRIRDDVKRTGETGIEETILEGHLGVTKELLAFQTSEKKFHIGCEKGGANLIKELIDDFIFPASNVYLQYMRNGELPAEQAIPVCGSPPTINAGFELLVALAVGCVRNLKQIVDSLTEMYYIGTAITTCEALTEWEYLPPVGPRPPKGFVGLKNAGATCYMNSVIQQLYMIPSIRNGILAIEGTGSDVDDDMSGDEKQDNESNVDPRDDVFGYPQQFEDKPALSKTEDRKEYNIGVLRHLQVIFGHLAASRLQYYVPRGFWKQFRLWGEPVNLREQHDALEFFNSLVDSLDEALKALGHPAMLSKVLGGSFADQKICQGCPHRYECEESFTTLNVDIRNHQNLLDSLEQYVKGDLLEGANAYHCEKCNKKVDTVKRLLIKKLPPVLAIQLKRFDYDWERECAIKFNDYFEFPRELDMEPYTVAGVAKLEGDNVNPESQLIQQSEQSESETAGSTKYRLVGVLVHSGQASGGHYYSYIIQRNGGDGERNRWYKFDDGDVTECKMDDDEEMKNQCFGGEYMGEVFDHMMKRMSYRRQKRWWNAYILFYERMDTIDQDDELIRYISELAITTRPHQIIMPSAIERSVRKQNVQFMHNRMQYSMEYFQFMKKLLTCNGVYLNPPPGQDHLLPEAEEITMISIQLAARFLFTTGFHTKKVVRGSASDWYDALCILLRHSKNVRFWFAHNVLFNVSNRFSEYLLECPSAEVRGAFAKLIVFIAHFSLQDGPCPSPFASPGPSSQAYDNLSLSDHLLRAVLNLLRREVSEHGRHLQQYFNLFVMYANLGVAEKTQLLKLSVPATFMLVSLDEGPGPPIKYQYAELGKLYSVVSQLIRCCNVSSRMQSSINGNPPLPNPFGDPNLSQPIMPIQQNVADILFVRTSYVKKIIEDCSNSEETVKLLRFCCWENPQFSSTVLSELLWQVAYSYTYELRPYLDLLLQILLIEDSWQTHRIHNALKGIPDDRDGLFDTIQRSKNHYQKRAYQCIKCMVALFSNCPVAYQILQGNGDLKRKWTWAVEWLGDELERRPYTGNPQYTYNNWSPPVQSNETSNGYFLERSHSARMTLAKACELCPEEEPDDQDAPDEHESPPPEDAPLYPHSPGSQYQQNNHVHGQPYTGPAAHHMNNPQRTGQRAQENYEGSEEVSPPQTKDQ

[6] = biological target: DUBs and other proteins in HEK293 cells (Homo sapiens, UniProt Q96BN8); details: replicates A-C; for Log2 reporter intensity values: OTULIN: competition with ABP 2, DMSO substract (FC); for Log2 reporter intensity values: OTULIN, DMSO subtracted
[7] = biological target: DUBs and other proteins in HEK293 cells (Homo sapiens, UniProt Q9UPU5); details: replicates A-C; for Log2 reporter intensity values: USP24: competition with ABP 2, DMSO substract (FC); for Log2 reporter intensity values: USP24, DMSO subtracted
Sequence of DUBs and other proteins in HEK293 cells (Homo sapiens, UniProt Q9UPU5) (Q9UPU5 whole entry): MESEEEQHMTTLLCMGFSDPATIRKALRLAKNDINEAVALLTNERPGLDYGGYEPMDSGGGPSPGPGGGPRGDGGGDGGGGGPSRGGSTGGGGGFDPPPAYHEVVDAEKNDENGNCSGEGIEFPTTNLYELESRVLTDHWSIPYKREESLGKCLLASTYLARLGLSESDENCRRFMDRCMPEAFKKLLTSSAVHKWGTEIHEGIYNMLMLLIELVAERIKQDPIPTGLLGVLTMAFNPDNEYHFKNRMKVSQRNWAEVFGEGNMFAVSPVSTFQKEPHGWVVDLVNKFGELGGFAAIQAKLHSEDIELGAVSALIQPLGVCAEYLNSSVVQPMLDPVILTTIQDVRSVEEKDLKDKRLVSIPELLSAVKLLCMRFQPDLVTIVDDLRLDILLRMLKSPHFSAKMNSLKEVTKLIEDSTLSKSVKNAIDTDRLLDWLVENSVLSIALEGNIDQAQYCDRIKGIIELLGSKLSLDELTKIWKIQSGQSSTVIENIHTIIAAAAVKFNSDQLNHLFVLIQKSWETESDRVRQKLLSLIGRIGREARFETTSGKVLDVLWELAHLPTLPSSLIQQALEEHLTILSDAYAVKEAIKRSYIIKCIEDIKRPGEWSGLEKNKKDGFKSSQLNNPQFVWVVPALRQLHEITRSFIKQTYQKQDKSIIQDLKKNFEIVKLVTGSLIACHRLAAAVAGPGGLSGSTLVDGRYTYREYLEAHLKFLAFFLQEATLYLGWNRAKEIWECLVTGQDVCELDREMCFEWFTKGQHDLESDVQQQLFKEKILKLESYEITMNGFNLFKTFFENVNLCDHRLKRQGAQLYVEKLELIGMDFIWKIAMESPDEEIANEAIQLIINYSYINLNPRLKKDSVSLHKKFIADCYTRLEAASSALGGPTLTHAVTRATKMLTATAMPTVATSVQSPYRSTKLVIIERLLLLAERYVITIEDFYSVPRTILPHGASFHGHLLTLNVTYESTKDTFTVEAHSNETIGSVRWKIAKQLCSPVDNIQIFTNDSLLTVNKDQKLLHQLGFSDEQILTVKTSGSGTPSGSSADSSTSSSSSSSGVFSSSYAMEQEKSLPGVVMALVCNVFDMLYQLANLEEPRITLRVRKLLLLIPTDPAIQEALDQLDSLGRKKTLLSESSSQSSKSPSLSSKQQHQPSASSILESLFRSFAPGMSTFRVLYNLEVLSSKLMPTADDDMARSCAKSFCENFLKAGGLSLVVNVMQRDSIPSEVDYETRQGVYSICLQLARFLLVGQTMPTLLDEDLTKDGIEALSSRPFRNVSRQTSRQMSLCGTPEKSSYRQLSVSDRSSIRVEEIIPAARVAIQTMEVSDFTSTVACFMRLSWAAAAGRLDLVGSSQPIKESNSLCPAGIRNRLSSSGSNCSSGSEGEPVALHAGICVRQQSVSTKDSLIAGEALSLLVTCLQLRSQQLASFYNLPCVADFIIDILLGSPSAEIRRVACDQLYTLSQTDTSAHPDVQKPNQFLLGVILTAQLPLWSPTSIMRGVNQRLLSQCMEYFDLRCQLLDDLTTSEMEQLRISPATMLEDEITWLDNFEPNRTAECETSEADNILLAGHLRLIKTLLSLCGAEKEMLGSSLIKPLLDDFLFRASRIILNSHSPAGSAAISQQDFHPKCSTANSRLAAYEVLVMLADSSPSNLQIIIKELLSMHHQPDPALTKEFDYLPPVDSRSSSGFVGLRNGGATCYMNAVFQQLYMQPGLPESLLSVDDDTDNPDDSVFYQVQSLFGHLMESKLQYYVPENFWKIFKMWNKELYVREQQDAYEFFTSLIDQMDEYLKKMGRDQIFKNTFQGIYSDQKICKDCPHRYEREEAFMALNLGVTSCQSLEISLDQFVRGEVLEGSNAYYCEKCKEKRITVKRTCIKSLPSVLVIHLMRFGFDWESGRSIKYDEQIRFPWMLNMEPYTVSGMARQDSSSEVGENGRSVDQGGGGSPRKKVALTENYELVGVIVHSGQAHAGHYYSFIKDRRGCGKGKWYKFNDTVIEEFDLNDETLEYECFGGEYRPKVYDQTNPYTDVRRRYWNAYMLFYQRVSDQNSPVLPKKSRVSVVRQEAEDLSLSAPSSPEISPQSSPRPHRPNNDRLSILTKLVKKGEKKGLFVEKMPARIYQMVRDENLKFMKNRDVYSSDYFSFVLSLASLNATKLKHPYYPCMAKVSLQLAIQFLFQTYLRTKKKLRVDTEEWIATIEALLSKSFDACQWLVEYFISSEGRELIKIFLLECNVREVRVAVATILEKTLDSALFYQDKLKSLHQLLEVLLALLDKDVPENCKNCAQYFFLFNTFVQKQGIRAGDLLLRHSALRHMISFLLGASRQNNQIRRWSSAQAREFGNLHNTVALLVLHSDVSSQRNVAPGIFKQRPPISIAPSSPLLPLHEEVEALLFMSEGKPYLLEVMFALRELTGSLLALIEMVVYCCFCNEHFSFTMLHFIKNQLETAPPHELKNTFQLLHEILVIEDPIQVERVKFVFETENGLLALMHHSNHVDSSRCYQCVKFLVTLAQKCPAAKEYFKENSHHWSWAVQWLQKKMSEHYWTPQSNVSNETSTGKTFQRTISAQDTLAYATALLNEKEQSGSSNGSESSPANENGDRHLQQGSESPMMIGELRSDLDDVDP

CC(=O)O/N=C1\C(=O)N(Cc2cc(Cl)ccc2Cl)c2ccc(Cl)cc21 [LDN]
Log2 reporter intensity values: USP47 ([1]; LDN at 5 μM): 0.9979 and 0.9926 and 1.029
Log2 reporter intensity values: USP47 ([1]; LDN at 25 μM): 1.08 and 1.079 and 1.007
Log2 reporter intensity values ([1]; LDN at 5 μM): -0.003055 and -0.01068 and 0.04147
Log2 reporter intensity values ([1]; LDN at 25 μM): 0.1109 and 0.1092 and 0.01034
Log2 reporter intensity values ([1]; LDN_5 μM): -0.002223 and -0.007484 and 0.02905
Log2 reporter intensity values ([1]; LDN_25 μM): 0.07978 and 0.07849 and 0.007088
Log2 reporter intensity values: USP7 ([2]; LDN at 5 μM): 1.02 and 1.001 and 1.029
Log2 reporter intensity values: USP7 ([2]; LDN at 25 μM): 0.9945 and 1.07 and 1.065
Log2 reporter intensity values ([2]; LDN at 5 μM): 0.02794 and 0.001316 and 0.0413
Log2 reporter intensity values ([2]; LDN at 25 μM): -0.007921 and 0.09748 and 0.09021
Log2 reporter intensity values ([2]; LDN_5 μM): 0.01927 and 0.0006308 and 0.02876
Log2 reporter intensity values ([2]; LDN_25 μM): -0.005757 and 0.06962 and 0.06425
Log2 reporter intensity values: PSMD14 ([3]; LDN at 5 μM): 1.1 and 1.114 and 0.9966
Log2 reporter intensity values: PSMD14 ([3]; LDN at 25 μM): 0.9804 and 1.072 and 1.068
Log2 reporter intensity values ([3]; LDN at 5 μM): 0.1369 and 0.1555 and -0.004904
Log2 reporter intensity values ([3]; LDN at 25 μM): -0.02853 and 0.1005 and 0.09452
Log2 reporter intensity values ([3]; LDN_5 μM): 0.09685 and 0.1112 and -0.006053
Log2 reporter intensity values ([3]; LDN_25 μM): -0.02224 and 0.06945 and 0.06505
Log2 reporter intensity values: UCHL5 ([4]; LDN at 5 μM): 1.097 and 1.066 and 1.089
Log2 reporter intensity values: UCHL5 ([4]; LDN at 25 μM): 0.9397 and 0.9601 and 0.908
Log2 reporter intensity values ([4]; LDN at 5 μM): 0.134 and 0.09247 and 0.1227
Log2 reporter intensity values ([4]; LDN at 25 μM): -0.08966 and -0.05875 and -0.1393
Log2 reporter intensity values ([4]; LDN_5 μM): 0.09668 and 0.06552 and 0.08811
Log2 reporter intensity values ([4]; LDN_25 μM): -0.06093 and -0.04058 and -0.09272
Log2 reporter intensity values: USP9X;USP9Y ([5]; LDN at 5 μM): 0.9588 and 0.9416 and 0.9642
Log2 reporter intensity values: USP9X;USP9Y ([5]; LDN at 25 μM): 0.918 and 0.963 and 0.9662
Log2 reporter intensity values ([5]; LDN at 5 μM): -0.06063 and -0.08675 and -0.05259
Log2 reporter intensity values ([5]; LDN at 25 μM): -0.1235 and -0.05434 and -0.04956
Log2 reporter intensity values ([5]; LDN_5 μM): -0.04118 and -0.05839 and -0.03582
Log2 reporter intensity values ([5]; LDN_25 μM): -0.08207 and -0.03699 and -0.0338
Log2 reporter intensity values: OTULIN ([6]; LDN at 5 μM): 0.9147 and 1.064 and 1.028
Log2 reporter intensity values: OTULIN ([6]; LDN at 25 μM): 0.944 and 1.042 and 0.9874
Log2 reporter intensity values ([6]; LDN at 5 μM): -0.1287 and 0.0891 and 0.03957
Log2 reporter intensity values ([6]; LDN at 25 μM): -0.08321 and 0.05912 and -0.01826
Log2 reporter intensity values ([6]; LDN_5 μM): -0.08587 and 0.06318 and 0.02728
Log2 reporter intensity values ([6]; LDN_25 μM): -0.05657 and 0.0413 and -0.01311
Log2 reporter intensity values: USP24 ([7]; LDN at 5 μM): 0.8375 and 1.105 and 1.062
Log2 reporter intensity values: USP24 ([7]; LDN at 25 μM): 1.15 and 1.015 and 1.054
Log2 reporter intensity values ([7]; LDN at 5 μM): -0.2559 and 0.1441 and 0.08741
Log2 reporter intensity values ([7]; LDN at 25 μM): 0.2018 and 0.02211 and 0.07566
Log2 reporter intensity values ([7]; LDN_5 μM): -0.1659 and 0.1016 and 0.0591
Log2 reporter intensity values ([7]; LDN_25 μM): 0.1468 and 0.01208 and 0.05048
